Source: US9958434B2, “Fluorescent probe sensing tyrosine kinase and use thereof” (POSTECH ACADEMY-INDUSTRY FOUNDATION, priority 2013, dated 2018)

Tested on: B16F10, CT26, SNU-475, A431, SKBR3, HeLa, U87MG cancer cells
Assay: Fluorescence turn-on in cancer cells, single-photon and two-photon fluorescence microscopy
Format: cell-based, mouse, human
Conditions: 50 μM, one hour; single-photon ex 405 nm, two-photon ex 880 nm, em 500 to 550 nm
Method: More particularly, a total of seven kinds of cancer cells, for example, (a) B16F10 mouse skin cancer cells, (b) CT26 mouse colon cancer cells, (c) SNU-475 human liver cancer cells, (d) A431 human epidermoid carcinoma cells, (e) SKBR3 human breast cancer cells, (f) HeLa human uterine cancer cells, and (g) U87MG human brain tumor cells, were treated with compound 1, and fluorescence images of the cancer cells were observed under a single-photon (confocal) fluorescence microscope (FV1000 model, Olympus) and a two-photon fluorescence microscope (Chameleon Ultra, Coherent, home-built version). Each of the cancer cells were incubated in a minimum essential medium with Earle's balanced salts (MEM/EBSS), a Dulbecco's modified Eagle medium (DMEM), a Roswell Park Memorial Institute (RPMI) medium, a fetal bovine serum (FBS), a penicillin-streptomycin (PS) medium, phosphate buffered saline (PBS), and a trypsin-EDTA culture broth, all of which were commercially available from Hyclone. In this case, the incubation was performed at 37° C. […] When the preparation was completed, a fluorescence image was obtained using a fluorescence microscope.
In FIG. 11, the top panel represents a bright field image, the middle panel represents a single-photon fluorescence microscope image of the cells, and the bottom panel represents a two-photon fluorescence microscope image of the cells.

SMILES: CN(C)c1ccc2cc(C=O)c(O)cc2c1 [compound 1, 6-(dimethylamino)-3-hydroxyl-2-naphthaldehyde]
- fluorescence image in cancer cells: bright fluorescence image
